± gives the expanded uncertainty stated by the source.
Key:
[1] = xn = mol fraction of the nth substance listed; conditions: 101 kPa, Liquid
[2] = molar heat capacity at constant pressure; xn = mol fraction of the nth substance listed; conditions: 101 kPa, Liquid, Small sample (50 mg) DSC

CCOS(=O)(=O)[O-].CCn1cc[n+](C)c1 [1-ethyl-3-methylimidazolium ethyl sulfate] + O
Conditions | electrical conductivity, x1 = 0.2 [S/m] | electrical conductivity, x1 = 0.4 [S/m] | electrical conductivity, x1 = 0.6 [S/m] | electrical conductivity, x1 = 0.8 [S/m] | molar heat capacity at constant pressure, x1 = 0.2 [J/K/mol] | molar heat capacity at constant pressure, x1 = 0.4 [J/K/mol] | molar heat capacity at constant pressure, x1 = 0.6 [J/K/mol] | molar heat capacity at constant pressure, x1 = 0.8 [J/K/mol]
[1], 293.2 K | 2.17 ± 0.042 | 1.23 ± 0.036 | 0.74 ± 0.012 | 0.466 ± 0.014 | – | – | – | –
[1], 298.2 K | 2.53 ± 0.02 | 1.44 ± 0.008 | 0.881 ± 0.014 | 0.569 ± 0.01 | – | – | – | –
[1], 303.2 K | 2.95 ± 0.03 | 1.695 ± 0.004 | 1.05 ± 0.016 | 0.696 ± 0.008 | – | – | – | –
[1], 308.2 K | 3.387 ± 0.03 | 1.95 ± 0.001 | 1.25 ± 0.022 | 0.837 ± 0.01 | – | – | – | –
[1], 313.2 K | 3.85 ± 0.04 | 2.243 ± 0.012 | 1.45 ± 0.028 | 0.991 ± 0.01 | – | – | – | –
[1], 318.2 K | 4.34 ± 0.05 | 2.563 ± 0.012 | 1.67 ± 0.038 | 1.159 ± 0.01 | – | – | – | –
[1], 323.2 K | 4.86 ± 0.08 | 2.9 ± 0.02 | 1.91 ± 0.04 | 1.342 ± 0.012 | – | – | – | –
[1], 328.2 K | 5.4 ± 0.076 | 3.257 ± 0.012 | 2.15 ± 0.062 | 1.54 ± 0.012 | – | – | – | –
[1], 333.2 K | 5.93 ± 0.084 | 3.617 ± 0.024 | 2.41 ± 0.072 | 1.746 ± 0.012 | – | – | – | –
[1], 338.2 K | 6.5 ± 0.07 | 3.997 ± 0.012 | 2.69 ± 0.088 | 1.94 ± 0.001 | – | – | – | –
[1], 343.2 K | 7.07 ± 0.092 | 4.393 ± 0.012 | 2.99 ± 0.11 | 2.173 ± 0.012 | – | – | – | –
[1], 348.2 K | 7.64 ± 0.08 | 4.793 ± 0.012 | 3.28 ± 0.04 | 2.417 ± 0.012 | – | – | – | –
[1], 353.2 K | 8.24 ± 0.072 | 5.207 ± 0.03 | 3.62 ± 0.12 | 2.673 ± 0.024 | – | – | – | –
[2], 303.2 K | – | – | – | – | 146.4 ± 2.3 | 218.8 ± 4.5 | 290 ± 4.5 | 359.1 ± 6
[2], 308.2 K | – | – | – | – | 147.5 ± 2.3 | 220.3 ± 3.5 | 291.4 ± 4.5 | 360.8 ± 6.1
[2], 313.2 K | – | – | – | – | 148.7 ± 2.3 | 221.6 ± 3.7 | 292.8 ± 4.5 | 362.3 ± 5.6
[2], 318.2 K | – | – | – | – | 149.5 ± 2.3 | 223.1 ± 3.5 | 294.4 ± 4.6 | 364 ± 5.6
[2], 323.2 K | – | – | – | – | 150.8 ± 2.3 | 224.7 ± 3.5 | 295.9 ± 4.6 | 365.7 ± 5.7
[2], 328.2 K | – | – | – | – | 151.9 ± 2.4 | 226.1 ± 3.5 | 297.5 ± 4.6 | 367.5 ± 5.7
[2], 333.2 K | – | – | – | – | 153.2 ± 2.4 | 227.8 ± 3.5 | 298.9 ± 4.6 | 369.3 ± 5.7
[2], 338.2 K | – | – | – | – | 154.7 ± 2.4 | 229.4 ± 3.6 | 300.6 ± 4.7 | 371.5 ± 5.8
[2], 343.2 K | – | – | – | – | 155.9 ± 2.7 | 231 ± 3.6 | 302.2 ± 4.7 | 373.2 ± 5.8
[2], 348.2 K | – | – | – | – | 157.2 ± 2.9 | 232.8 ± 3.6 | 304 ± 4.7 | 375.5 ± 5.8
[2], 353.2 K | – | – | – | – | 158.4 ± 3.1 | 234.6 ± 3.6 | 305.8 ± 4.7 | 377.5 ± 5.9

CCn1cc[n+](C)c1.O=S(=O)([O-])C(F)(F)F [1-ethyl-3-methylimidazolium trifluoromethanesulfonate] + O
Conditions | electrical conductivity, [1] [S/m] | molar heat capacity at constant pressure, [2] [J/K/mol]
293.2 K, x1 = 0.2 | 3.437 ± 0.012 | –
293.2 K, x1 = 0.4 | 2.35 ± 0.042 | –
293.2 K, x1 = 0.6 | 1.64 ± 0.026 | –
293.2 K, x1 = 0.8 | 1.17 ± 0.05 | –
298.2 K, x1 = 0.2 | 3.927 ± 0.012 | –
298.2 K, x1 = 0.4 | 2.67 ± 0.06 | –
298.2 K, x1 = 0.6 | 1.86 ± 0.028 | –
298.2 K, x1 = 0.8 | 1.34 ± 0.042 | –
303.2 K, x1 = 0.1 | – | 102.6 ± 1.7
303.2 K, x1 = 0.2 | 4.47 ± 0.02 | 133.3 ± 2.1
303.2 K, x1 = 0.4 | 3.05 ± 0.07 | 197.5 ± 4.6
303.2 K, x1 = 0.6 | 2.12 ± 0.034 | 260.1 ± 4.2
303.2 K, x1 = 0.8 | 1.56 ± 0.054 | 320.1 ± 5
303.2 K, x1 = 0.9 | – | 351 ± 5.4
308.2 K, x1 = 0.1 | – | 103 ± 2
308.2 K, x1 = 0.2 | 5.037 ± 0.03 | 134.1 ± 2.1
308.2 K, x1 = 0.4 | 3.46 ± 0.06 | 198.7 ± 5.2
308.2 K, x1 = 0.6 | 2.42 ± 0.042 | 261.6 ± 4.1
308.2 K, x1 = 0.8 | 1.79 ± 0.06 | 321.9 ± 5
308.2 K, x1 = 0.9 | – | 352.7 ± 5.5
313.2 K, x1 = 0.1 | – | 103.4 ± 2
313.2 K, x1 = 0.2 | 5.613 ± 0.012 | 134.7 ± 2.1
313.2 K, x1 = 0.4 | 3.87 ± 0.07 | 199.9 ± 3.6
313.2 K, x1 = 0.6 | 2.73 ± 0.042 | 263.2 ± 4.8
313.2 K, x1 = 0.8 | 2.01 ± 0.05 | 323.7 ± 5
313.2 K, x1 = 0.9 | – | 354.8 ± 5.5
318.2 K, x1 = 0.1 | – | 103.8 ± 2
318.2 K, x1 = 0.2 | 6.213 ± 0.024 | 135.5 ± 2.1
318.2 K, x1 = 0.4 | 4.31 ± 0.06 | 201.3 ± 3.1
318.2 K, x1 = 0.6 | 3.047 ± 0.012 | 264.5 ± 4.1
318.2 K, x1 = 0.8 | 2.27 ± 0.07 | 325.4 ± 5
318.2 K, x1 = 0.9 | – | 356.7 ± 5.5
323.2 K, x1 = 0.1 | – | 104.3 ± 1.9
323.2 K, x1 = 0.2 | 6.837 ± 0.03 | 136.4 ± 2.2
323.2 K, x1 = 0.4 | 4.77 ± 0.06 | 202.4 ± 3.1
323.2 K, x1 = 0.6 | 3.393 ± 0.024 | 266 ± 4.1
323.2 K, x1 = 0.8 | 2.55 ± 0.072 | 327.3 ± 5.1
323.2 K, x1 = 0.9 | – | 358.4 ± 5.6
328.2 K, x1 = 0.1 | – | 105 ± 1.9
328.2 K, x1 = 0.2 | 7.47 ± 0.034 | 137.1 ± 2.3
328.2 K, x1 = 0.4 | 5.24 ± 0.07 | 203.8 ± 3.2
328.2 K, x1 = 0.6 | 3.757 ± 0.03 | 267.6 ± 4.4
328.2 K, x1 = 0.8 | 2.84 ± 0.09 | 329.1 ± 5.5
328.2 K, x1 = 0.9 | – | 360.2 ± 5.6
333.2 K, x1 = 0.1 | – | 105.5 ± 2
333.2 K, x1 = 0.2 | 8.113 ± 0.024 | 138 ± 2.4
333.2 K, x1 = 0.4 | 5.72 ± 0.09 | 205.2 ± 3.2
333.2 K, x1 = 0.6 | 4.127 ± 0.03 | 269.1 ± 4.2
333.2 K, x1 = 0.8 | 3.14 ± 0.092 | 331.1 ± 6.3
333.2 K, x1 = 0.9 | – | 362 ± 5.6
338.2 K, x1 = 0.1 | – | 106.1 ± 1.9
338.2 K, x1 = 0.2 | 8.76 ± 0.02 | 138.8 ± 2.4
338.2 K, x1 = 0.4 | 6.22 ± 0.084 | 206.4 ± 3.5
338.2 K, x1 = 0.6 | 4.513 ± 0.042 | 270.9 ± 4.2
338.2 K, x1 = 0.8 | 3.46 ± 0.092 | 332.7 ± 6.3
338.2 K, x1 = 0.9 | – | 364 ± 5.6
343.2 K, x1 = 0.1 | – | 106.4 ± 2.1
343.2 K, x1 = 0.2 | 9.413 ± 0.012 | 139.8 ± 2.4
343.2 K, x1 = 0.4 | 6.71 ± 0.08 | 207.7 ± 4.2
343.2 K, x1 = 0.6 | 4.903 ± 0.042 | 272.3 ± 4.2
343.2 K, x1 = 0.8 | 3.78 ± 0.1 | 334.6 ± 6.5
343.2 K, x1 = 0.9 | – | 365.9 ± 5.8
348.2 K, x1 = 0.1 | – | 107 ± 1.8
348.2 K, x1 = 0.2 | 10.05 ± 0.02 | 140.6 ± 2.4
348.2 K, x1 = 0.4 | 7.22 ± 0.088 | 208.9 ± 4.1
348.2 K, x1 = 0.6 | 5.307 ± 0.05 | 273.8 ± 4.9
348.2 K, x1 = 0.8 | 4.13 ± 0.13 | 336.4 ± 6.5
348.2 K, x1 = 0.9 | – | 368 ± 5.7
353.2 K, x1 = 0.1 | – | 107.5 ± 1.8
353.2 K, x1 = 0.2 | 10.71 ± 0.042 | 141.5 ± 2.7
353.2 K, x1 = 0.4 | 7.75 ± 0.09 | 210.1 ± 5.5
353.2 K, x1 = 0.6 | 5.743 ± 0.03 | 275.5 ± 4.3
353.2 K, x1 = 0.8 | 4.48 ± 0.09 | 338.2 ± 6.5
353.2 K, x1 = 0.9 | – | 369.8 ± 6.1

Source: the NIST ThermoML archive (doi:10.1016/j.tca.2009.07.006)
